The values below come from US10730863B2, “Bridged bicyclic compounds as farnesoid X receptor modulators” (BRISTOL-MYERS SQUIBB COMPANY, priority 2017, dated 2020).

This assay has as its target FXR (Homo sapiens (Human), UniProt Q96RI1). Nature of the assay: FXR EC50 (FXR agonist activity reported with each example). It is filed as cell-based.

Chain of FXR (Q96RI1 262-486): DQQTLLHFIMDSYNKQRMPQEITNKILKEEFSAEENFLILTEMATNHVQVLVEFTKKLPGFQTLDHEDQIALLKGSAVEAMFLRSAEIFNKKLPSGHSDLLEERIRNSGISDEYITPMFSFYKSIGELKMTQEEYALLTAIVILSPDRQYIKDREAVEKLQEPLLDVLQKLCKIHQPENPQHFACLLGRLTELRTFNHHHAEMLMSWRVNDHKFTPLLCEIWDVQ

As to `O=C(O)c1ccc(OC2CCC2)c2nc(C34CCC(OCc5c(-c6c(Cl)cncc6Cl)noc5C5CC5)(CC3)CC4)ccc12` [Example 405], a half-maximal response (EC50) required 28 nM. In the case of `O=C(O)c1cc(C(F)(F)F)cc(C23CCC(/C=C/c4c(-c5c(Cl)cncc5Cl)noc4C4CC4)(CC2)CO3)c1` [Example 491, (E)-3-(4-(2-(5-cyclopropyl-3-(3,5-dichloropyridin-4-yl)isoxazol-4-yl)vinyl)-2-oxabicyclo[2.2.2]octan-1-yl)-5-(trifluoromethyl)benzoic acid] it was 26 nM; in that of `CC(Oc1ccc(OCC23CCC(OCc4c(-c5c(Cl)cncc5Cl)noc4C4CC4)(CC2)CC3)cc1)C(=O)O` (centres unmarked) [Example 341], 1500 nM; in that of `O=C(O)c1cc(OCC23CCC(OCc4c(-c5c(Cl)cncc5Cl)noc4C4CC4)(CC2)CC3)cc(C(F)(F)F)c1` [Example 103, 3-((4-((5-cyclopropyl-3-(3,5-dichloropyridin-4-yl)isoxazol-4-yl)methoxy)bicyclo[2.2.2]octan-1-yl)methoxy)-5-(trifluoromethyl)benzoic acid], 4 nM. In the case of `O=C(O)c1ccc(-c2noc(C34CCC(/C=C/c5c(-c6c(Cl)cccc6Cl)noc5C5CC5)(CC3)CC4)n2)cc1` [Example 160] it was 51 nM. In the case of `CC(C)Oc1cc(C(=O)O)cc(-c2noc(C34CCC(OCc5c(-c6c(Cl)cncc6Cl)noc5C5CC5)(CC3)CC4)n2)c1` [Example 251, 3-(5-(4-((5-cyclopropyl-3-(3,5-dichloropyridin-4-yl)isoxazol-4-yl)methoxy)bicyclo[2.2.2]octan-1-yl)-1,2,4-oxadiazol-3-yl)-5-isopropoxybenzoic acid] it was 16 nM; in that of `O=C(O)c1ncc(OCC23CCC(OCc4c(-c5c(Cl)cncc5Cl)noc4C4CC4)(CC2)CC3)cc1OCC(F)(F)F` [Example 300, 5-((4-((5-cyclopropyl-3-(3,5-dichloropyridin-4-yl)isoxazol-4-yl)methoxy)bicyclo[2.2.2]octan-1-yl)methoxy)-3-(2,2,2-trifluoroethoxy)picolinic acid], 57 nM; in that of `O=C(O)c1ccc(C23CCC(COCc4c(-c5c(Cl)cccc5Cl)noc4C4CC4)(CC2)CO3)cc1` [Example 201], 270 nM. In the case of `O=C(O)c1cc(F)c2nc(OCC34CCC(C=Cc5c(-c6c(Cl)cccc6Cl)noc5C5CC5)(CC3)CC4)sc2c1` [Example 191], the half-maximal effective concentration (EC50) (usually the concentration that produces a half-maximal response) turned out to be 58 nM.

`O=C(O)c1cccc2nc(C34CCC(C=Cc5c(-c6c(Cl)cccc6Cl)noc5C5CC5)(CC3)CC4)sc12` [Example 189] gave an EC50 of 63 nM. In the case of `O=C(O)c1cccn2c(C#CC34CCC(OCc5c(-c6c(Cl)cncc6Cl)noc5C5CC5)(CC3)CC4)cnc12` [Example 397] it was 48 nM. `O=C(O)c1cc(C(F)(F)F)cc(C#CC23CCC(OCc4c(-c5c(Cl)cncc5Cl)noc4C4CC4)(CC2)CC3)n1` [Example 373] registered an EC50 of 460 nM. The value for `Cc1cc(C(=O)O)ncc1C#CC12CCC(OCc3c(-c4c(Cl)cncc4Cl)noc3C3CC3)(CC1)CC2` [Example 387] was 57 nM; that for `Cn1cc(C#CC23CCC(OCc4c(-c5c(Cl)cncc5Cl)noc4C4CC4)(CC2)CC3)c2ccc(C(=O)O)cc21` [Example 399] was 83 nM; that for `O=C(O)c1cc(-c2nc(C34CCC(OCc5c(-c6ccccc6C(F)(F)F)noc5C5CC5)(CC3)CC4)no2)ccn1` [Example 59] was 3800 nM. In the case of `NC(=O)c1cc(F)c2nc(C(O)C34CCC(OCc5c(-c6c(Cl)cccc6Cl)noc5C5CC5)(CC3)CC4)sc2c1` (centres unmarked) [Example 123, 2-((4-((5-cyclopropyl-3-(2,6-dichlorophenyl)isoxazol-4-yl)methoxy)bicyclo[2.2.2]octan-1-yl)(hydroxy)methyl)-4-fluorobenzo[d]thiazole-6-carboxamide] it was 280 nM.

`O=C(O)c1ccc2nc(C34CCC(OCc5c(-c6ccccc6OC(F)(F)F)noc5C5CC5)(CC3)CC4)ncc2c1` [Example 62]: the concentration for a half-maximal effect (EC50) was found to be 1300 nM. Take `O=C(O)c1ccc(-c2noc(C34CCC(OCc5c(-c6c(Cl)cccc6Cl)noc5C5CC5)(CC3)CO4)n2)cc1` [Example 196]: the response was half-maximal at 83 nM (EC50). In the case of `O=C(O)c1cccc(-c2noc(C34CCC(OCc5c(-c6ccccc6OC(F)(F)F)noc5C5CC5)(CC3)CO4)n2)c1` [Example 199] it was 220 nM; in that of `O=C(O)c1ccc2nc(C34CCC(OCc5c(-c6ccccc6C(F)(F)F)noc5C5CC5)(CC3)CC4)sc2c1` [Example 6, 2-(4-((5-cyclopropyl-3-(2-(trifluoromethyl)phenyl)isoxazol-4-yl)methoxy)bicyclo[2.2.2]octan-1-yl)benzo[d]thiazole-6-carboxylic acid], 4200 nM.

The compound `O=C(O)c1ncc(OCC23CCC(OCc4c(-c5c(Cl)cncc5Cl)noc4C4CC4)(CC2)CC3)cc1C(F)(F)F` [Example 285, 5-((4-((5-cyclopropyl-3-(3,5-dichloropyridin-4-yl)isoxazol-4-yl)methoxy)bicyclo[2.2.2]octan-1-yl)methoxy)-3-(trifluoromethyl)picolinic acid] displayed an EC50 of 130 nM. The value for `O=C(O)C1CC1c1noc(CC23CCC(OCc4c(-c5c(Cl)cncc5Cl)noc4C4CC4)(CC2)CC3)n1` (centres unmarked) [Example 272, 2-(5-((4-((5-cyclopropyl-3-(3,5-dichloropyridin-4-yl)isoxazol-4-yl)methoxy)bicyclo[2.2.2]octan-1-yl)methyl)-1,2,4-oxadiazol-3-yl)cyclopropane-1-carboxylic acid] was 400 nM; that for `O=C(O)c1ncc(OCC23CCC(OCc4c(-c5c(Cl)cncc5Cl)noc4C4CC4)(CC2)CC3)cc1OC1CCC1` [Example 339] was 28 nM. The value for `COCc1cc(C#CC23CCC(OCc4c(-c5c(Cl)cncc5Cl)noc4C4CC4)(CC2)CC3)cc(C(=O)O)c1` [Example 386] was 31 nM; that for `O=C(O)CC1CCN(C(=O)C23CCC(OCc4c(-c5c(Cl)cccc5Cl)noc4C4CC4)(CC2)CC3)CC1` [Example 145, 2-(1-(4-((5-cyclopropyl-3-(2,6-dichlorophenyl)isoxazol-4-yl)methoxy)bicyclo[2.2.2]octane-1-carbonyl)piperidin-4-yl)acetic acid] was 3800 nM; that for `O=C(O)c1cc(OCC23CCC(OCc4c(-c5c(Cl)cncc5Cl)noc4C4CC4)(CC2)CC3)ccc1F` [Example 277] was 47 nM.

In the case of `O=C(O)c1cc(C(F)(F)F)cc(C23CCC(COCc4c(-c5c(Cl)cncc5Cl)noc4C4CC4)(CC2)CO3)c1` [Example 490, 3-(4-(((5-cyclopropyl-3-(3,5-dichloropyridin-4-yl)isoxazol-4-yl)methoxy)methyl)-2-oxabicyclo[2.2.2]octan-1-yl)-5-(trifluoromethyl)benzoic acid], the EC50 was determined as 96 nM. In the case of `O=C(O)c1cc(OC(F)F)cc(-c2noc(C34CCC(/C=C/c5c(-c6c(Cl)cncc6Cl)noc5C5CC5)(CC3)CO4)n2)c1` [Example 479, (E)-3-(5-(4-(2-(5-cyclopropyl-3-(3,5-dichloropyridin-4-yl)isoxazol-4-yl)vinyl)-2-oxabicyclo[2.2.2]octan-1-yl)-1,2,4-oxadiazol-3-yl)-5-(difluoromethoxy)benzoic acid] it was 360 nM; in that of `O=C(O)c1cccc(OCC23CCC(OCc4c(-c5ccccc5OC(F)(F)F)noc4C4CC4)(CC2)CC3)c1` [Example 77], 180 nM. Take `O=C(O)c1ccc(-c2noc(C34CCC(COCc5c(-c6ccccc6OC(F)(F)F)noc5C5CC5)(CC3)CO4)n2)cc1` [Example 209, 4-(5-(4-(((5-cyclopropyl-3-(2-(trifluoromethoxy)phenyl)isoxazol-4-yl)methoxy)methyl)-2-oxabicyclo[2.2.2]octan-1-yl)-1,2,4-oxadiazol-3-yl)benzoic acid]: a half-maximal effect (EC50) was put at 470 nM.

Compound `NC(=O)c1noc(C23CCC(OCc4c(-c5c(Cl)cccc5Cl)noc4C4CC4)(CC2)CC3)n1` [Example 74, 5-(4-((5-cyclopropyl-3-(2,6-dichlorophenyl)isoxazol-4-yl)methoxy)bicyclo[2.2.2]octan-1-yl)-1,2,4-oxadiazole-3-carboxamide] gave an EC50 of 520 nM. The value for `Clc1cccc(Cl)c1-c1noc(C2CC2)c1COCC12CCC(c3cccc(-c4nnn[nH]4)c3)(CC1)OC2` [Example 220, 4-(((1-(3-(1H-tetrazol-5-yl)phenyl)-2-oxabicyclo[2.2.2]octan-4-yl)methoxy)methyl)-5-cyclopropyl-3-(2,6-dichlorophenyl)isoxazole] was 870 nM; that for `COc1ccc(-c2noc(C34CCC(/C=C/c5c(-c6c(Cl)cncc6Cl)noc5C5CC5)(CC3)CO4)n2)cc1C(=O)O` [Example 492, (E)-5-(5-(4-(2-(5-cyclopropyl-3-(3,5-dichloropyridin-4-yl)isoxazol-4-yl)vinyl)-2-oxabicyclo[2.2.2]octan-1-yl)-1,2,4-oxadiazol-3-yl)-2-methoxybenzoic acid] was 250 nM; that for `Cc1nc(C23CCC(COCc4c(-c5c(Cl)cccc5Cl)noc4C4CC4)(CC2)CC3)sc1C(=O)O` [Example 179, 2-(4-(((5-cyclopropyl-3-(2,6-dichlorophenyl)isoxazol-4-yl)methoxy)methyl)bicyclo[2.2.2]octan-1-yl)-4-methylthiazole-5-carboxylic acid] was 560 nM. The compound `COc1cc(OCC23CCC(OCc4c(-c5c(Cl)cncc5Cl)noc4C4CC4)(CC2)CC3)ccc1C(=O)O` [Example 358] yielded an EC50 of 52 nM. In turn, `COc1cc(C#CC23CCC(OCc4c(-c5c(Cl)cncc5Cl)noc4C4CC4)(CC2)CC3)nc(C(=O)O)c1` [Example 377] gave an EC50 of 390 nM. In turn, `O=C(O)c1cc(OCC2COC2)c2cc(OCC34CCC(OCc5c(-c6c(Cl)cncc6Cl)noc5C5CC5)(CC3)CC4)ccc2n1` [Example 360] had a concentration giving a half-maximal response (EC50) of 140 nM. Consider `COc1ccc(-c2nc(C34CCC(OCc5c(-c6c(Cl)cncc6Cl)noc5C5CC5)(CC3)CC4)cs2)cc1C(=O)O` [Example 255, 5-(4-(4-((5-cyclopropyl-3-(3,5-dichloropyridin-4-yl)isoxazol-4-yl)methoxy)bicyclo[2.2.2]octan-1-yl)thiazol-2-yl)-2-methoxybenzoic acid], for which a half-maximal response (EC50) required 18 nM.
